Assay [1] deals with A. baumannii LMG 1025 (ATCC 17978). Nature of the assay: Assay 3: growth inhibition of A. baumannii by sub-inhibitory novobiocin in combination with examples (resazurin reduction). In kind it is cell-based, Acinetobacter baumannii. An excerpt:
(§1) Escherichia coli BW25113 (CGSC 7636) and its derivatives E. coli ΔtolC (JW5503-1, ΔtolC732::kan, CGSC 11430), E. coli ΔacrA (JW0452-3, ΔacrA748::kan, CGSC 11843) and E. coli ΔacrB (JW0451-2, ΔacrB747::kan, CGSC 8609) were obtained from E. coli Genetic Stock Center (CGSC, New Haven, Connecticut) and originated from the Keio Collection (Baba T et al, Mol Sys Biol, 2006). Klebsiella pneumoniae (LMG 2095/ATCC 13883) and K. pneumoniae (ATCC43816), Pseudomonas aeruginosa (PAO1), Acinetobacter baumannii (LMG 1025, ATCC 17978), were obtained from ATCC or BCCM/LMG Bacteria Collection. All bacteria were grown and tested in cation-adjusted Mueller-Hinton broth (CAMHB; BD Difco) at 37° C. For conservation, log phase bacteria were frozen (−80° C.) in CAMHB supplemented with 15% glycerol.
Measurement of growth Inhibition of A. baumannii strains by sub Inhibitory concentrations of novobiocin In combination with examples 1-137
(§2) For the evaluation of the dose dependent activity of examples 1-137, their ability to boost the antibacterial activity of sub-inhibitory concentrations novobiocin was determined. Briefly, A. baumannii LMG 1025 (ATCC 17978) were diluted from frozen or growing stocks to an OD600 of 0.001 in CAMHB. The bacterial suspension was then used as such (no—antibiotic control to evaluate EPI activity), or spiked with novobiocin at a final concentration of 5 μg/mL. Bacteria were then added to microplates carrying serial dilutions of the compounds examples 1-137, and incubated for (5 h or 24 h, 37° C.). Bacterial viability was evaluated using the resazurin reduction assay, and measured by fluorescence (POLARstar Omega, BMG Labtech: Ex: 530 nm Em: 590 nm). […] were defined as the compound concentration that prevented 90% of resazurin turnover compared to the non-treated bacteria.
(Resazurin is reduced to fluorescent resorufin, in cell work by metabolically active cells.)

The subject of another assay is E. coli BW25113. Nature of the assay: Assay 1: growth inhibition of E. coli by sub-inhibitory pyridomycin in combination with examples (resazurin reduction). It counts as cell-based, Escherichia coli. The following applies: read-out: EC50 on E. coli with 8 μg/mL of pyridomycin, 8 μg/mL pyridomycin, 5 h, 37° C. Summed up: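 E. coli BW25113 at OD600 0.0004–0.001 was grown in CAMHB at 37 °C. Viability was read by resazurin reduction fluorescence (Ex 530/Em 590 nm). EC50 is the concentration preventing 50% of resazurin turnover relative to untreated bacteria.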

The subject of assay [2] is A. baumannii LMG 1025 (ATCC 17978). Nature of the assay: Assay 2: growth inhibition of A. baumannii by sub-inhibitory chloramphenicol in combination with examples (resazurin reduction). In kind it is cell-based, Acinetobacter baumannii. The note with it: read-out: EC90 on A. baumannii with 10 μg/mL of chloramphenicol, 10 μg/mL chloramphenicol, 5 h or 24 h, 37° C.
Description: as §1
Measurement of Growth Inhibition of A. baumannii Strains by Sub Inhibitory Concentrations of Chloramphenicol in Combination with Examples 1-137
as §2, with “concentrations chloramphenicol” for “concentrations novobiocin”, “such (no-antibiotic” for “such (no—antibiotic”, “with chloramphenicol” for “with novobiocin”, “of 10” for “of 5”

Setting [3] is: 5 μg/mL novobiocin, 5 h or 24 h, 37° C., read-out: EC90 on A. baumannii with 5 μg/mL of novobiocin.

In patent US20240327354A1, “GRAM-NEGATIVE BACTERIA EFFLUX PUMP INHIBITORS” (INSTITUT NATIONAL DE LA SANTÉ ET DE LA RECHERCHE MÉDICALE, priority 2021, published 2024) one finds EC90 and EC50 data, which are given here for 25 compounds.

Each structure is given as a SMILES string. Where a name gives a salt, the structure may show the parent alone.

Consider `COc1ccc(CN)cc1-c1ccc2nc(N3CCNCC3)c(Cl)cc2c1` [Example 120, [3-(3-chloro-2-piperazin-1-yl-6-quinolyl)-4-methoxy-phenyl]methanamine;dihydrochloride], for which the EC90 in assay [1] (setting [3]) was in the range of 5 to 100 µM. Also, in the assay with E. coli BW25113, the EC50 was under 5 µM.

In the case of `NCc1ccc(Cl)c(-c2ccc3nc(N4CCNCC4)c(Cl)cc3c2)c1` [Example 121, [4-chloro-3-(3-chloro-2-piperazin-1-yl-6-quinolyl)phenyl]methanamine;dihydrochloride], the EC90 in assay [1] (setting [3]) is 5 to 100 µM. Also, the EC50 in the assay with E. coli BW25113 was under 5 µM.

On to `NCCc1ccc(-c2ccc3nc(N4CCNCC4)c(Cl)cc3c2)cc1` [Example 116, 2-[4-(3-chloro-2-piperazin-1-yl-6-quinolyl)phenyl]ethanamine;dihydrochloride], for which the EC90 in assay [1] (setting [3]) lay in the range of 5 to 100 µM. Also, the EC50 in the assay with E. coli BW25113 was under 5 µM.

On to `C[C@H](N)c1cccc(-c2ccc3nc(N4CCNCC4)c(Cl)cc3c2)c1` [Example 112, (1S)-1-[3-(3-chloro-2-piperazin-1-yl-6-quinolyl)phenyl]ethanamine; dihydrochloride], for which the EC90 in assay [1] (setting [3]) lay within 5 to 100 µM. Further, in the assay on E. coli BW25113, the EC50 was under 5 µM.

For `NCc1cc(-c2ccc3nc(N4CCNCC4)c(Cl)cc3c2)ccc1F` [Example 130, [5-(3-chloro-2-piperazin-1-yl-6-quinolyl)-2-fluoro-phenyl]methanamine;dihydrochloride], the EC90 in assay [1] (setting [3]) and in assay [2] was 5 to 100 µM in each case. Also, the EC50 with E. coli BW25113 was under 5 µM.

As for `NCc1cc(-c2ccc3nc(N4CCNCC4)c(Cl)cc3c2)cc(C(F)(F)F)c1` [Example 125, [3-(3-chloro-2-piperazin-1-yl-6-quinolyl)-5-(trifluoromethyl)phenyl]methanamine;dihydrochloride], the EC90 in assay [1] (read-out: EC90 on A. baumannii with 5 μg/mL of novobiocin, 5 μg/mL novobiocin, 5 h or 24 h, 37° C.) was 5 to 100 µM. For the same compound, in the assay on E. coli BW25113, the EC50 is under 5 µM.

For the compound `NCc1cccc(-c2ccc3nc(N4CCNCC4)c(Cl)cc3c2)c1` [Example 66, [3-(3-chloro-2-piperazin-1-yl-6-quinolyl)phenyl]methanamine;dihydrochloride], the EC90 in assay [1] (setting [3]) and in assay [2] was 5 to 100 µM each time. Besides, the EC50 with E. coli BW25113 was under 5 µM.

`Cc1ccc(-c2ccc3nc(N4CCNCC4)c(Cl)cc3c2)cc1CN` [Example 126, [5-(3-chloro-2-piperazin-1-yl-6-quinolyl)-2-methyl-phenyl]methanamine;dihydrochloride]: the EC90 in assay [1] (setting [3]) was in the range of 5 to 100 µM. Further, the EC50 in the assay on E. coli BW25113 was under 5 µM.

Regarding `NCc1ccc(-c2ccc3nc(N4CCNCC4)c(Cl)cc3c2)cc1` [Example 107, [4-(3-chloro-2-piperazin-1-yl-6-quinolyl)phenyl]methanamine;dihydrochloride], in assay [1] (setting [3]), the EC90 lay within 5 to 100 µM. In addition, in the assay with E. coli BW25113, the EC50 is under 5 µM.

For `Clc1cc2cc(-c3cccc4c3CCNC4)ccc2nc1N1CCNCC1` [Example 133, 3-chloro-2-piperazin-1-yl-6-(1,2,3,4-tetrahydroisoquinolin-5-yl)quinoline;dihydrochloride], the EC90 in assay [1] (setting [3]) was in the range of 5 to 100 µM. In the assay with E. coli BW25113, the EC50 is under 5 µM.

On to `COc1ccc(-c2ccc3nc(N4CCNCC4)c(Cl)cc3c2)cc1CN` [Example 127, [5-(3-chloro-2-piperazin-1-yl-6-quinolyl)-2-methoxy-phenyl]methanamine;dihydrochloride], for which the EC90 in assay [1] (setting [3]) was in the range of 5 to 100 µM. For the same compound, the EC50 in the assay on E. coli BW25113 was under 5 µM.

As for `CNCc1cccc(-c2ccc3nc(N4CCNCC4)c(Cl)cc3c2)c1` [Example 109, 1-[3-(3-chloro-2-piperazin-1-yl-6-quinolyl)phenyl]-N-methyl-methanamine;dihydrochloride], the EC90 in assay [1] (setting [3]) and in assay [2] was 5 to 100 µM throughout. The EC50 in the assay with E. coli BW25113 is under 5 µM.

As to `NCc1ccccc1-c1ccc2nc(N3CCNCC3)c(Cl)cc2c1` [Example 111, [2-(3-chloro-2-piperazin-1-yl-6-quinolyl)phenyl]methanamine;dihydrochloride], the EC90 in assay [1] (setting [3]) lay within 5 to 100 µM. The EC50 in the assay on E. coli BW25113 is under 5 µM.

In the case of `Clc1cc2cc(-c3ccc4c(c3)CNC4)ccc2nc1N1CCNCC1` [Example 135, 3-chloro-6-isoindolin-5-yl-2-piperazin-1-yl-quinoline;dihydrochloride], in assay [1] (setting [3]), the EC90 is 5 to 100 µM. Further, the EC50 in the assay on E. coli BW25113 is under 5 µM.

With `COc1c(CN)cccc1-c1ccc2nc(N3CCNCC3)c(Cl)cc2c1` [Example 118, [3-(3-chloro-2-piperazin-1-yl-6-quinolyl)-2-methoxy-phenyl]methanamine;dihydrochloride], the EC90 in assay [1] (setting [3]) is 5 to 100 µM. The EC50 in the assay with E. coli BW25113 is under 5 µM.

As for `NCCc1ccccc1C#Cc1cnc(N2CCNCC2)c(Cl)c1` [Example 90, 2-[2-[2-(5-chloro-6-piperazin-1-yl-3-pyridyl)ethynyl]phenyl]ethanamine; 2,2,2-trifluoroacetic acid], in assay [1] (setting [3]), the EC90 is 5 to 100 µM. Also, in the assay on E. coli BW25113, the EC50 was under 5 µM.

Regarding `NCCc1cccc(C#Cc2cnc(N3CCNCC3)c(Cl)c2)c1` [Example 91, 2-[3-[2-(5-chloro-6-piperazin-1-yl-3-pyridyl)ethynyl]phenyl]ethanamine; 2,2,2-trifluoroacetic acid], the EC90 in assay [1] (setting [3]) fell in the range of 5 to 100 µM. In addition, the EC50 in the assay with E. coli BW25113 was under 5 µM.

Take `NCc1cc(-c2ccc3nc(N4CCNCC4)c(Cl)cc3c2)ccc1C(F)(F)F` [Example 129, [5-(3-chloro-2-piperazin-1-yl-6-quinolyl)-2-(trifluoromethyl)phenyl]methanamine;dihydrochloride]: in assay [1] (setting [3]), the EC90 is 5 to 100 µM. Besides, the EC50 with E. coli BW25113 was under 5 µM.

Consider `Cc1cc(CN)cc(-c2ccc3nc(N4CCNCC4)c(Cl)cc3c2)c1` [Example 123, [3-(3-chloro-2-piperazin-1-yl-6-quinolyl)-5-methyl-phenyl]methanamine;dihydrochloride], for which, in assay [1] (setting [3]), the EC90 lay within 5 to 100 µM. In addition, in the assay on E. coli BW25113, the EC50 is under 5 µM.

Consider `NCCCCNc1ccc2nc(N3CCNCC3)c(Cl)cc2c1` [Example 105, N′-(3-chloro-2-piperazin-1-yl-6-quinolyl)butane-1,4-diamine;dihydrochloride], for which the EC90 in assay [1] (setting [3]) is 5 to 100 µM. Moreover, the EC50 in the assay on E. coli BW25113 is under 5 µM.

With `COc1cc(CN)cc(-c2ccc3nc(N4CCNCC4)c(Cl)cc3c2)c1` [Example 124, [3-(3-chloro-2-piperazin-1-yl-6-quinolyl)-5-methoxy-phenyl]methanamine;dihydrochloride], the EC90 in assay [1] (setting [3]) is 5 to 100 µM. In the assay on E. coli BW25113, the EC50 was under 5 µM.

As to `Cc1ccc(CN)cc1-c1ccc2nc(N3CCNCC3)c(Cl)cc2c1` [Example 119, [3-(3-chloro-2-piperazin-1-yl-6-quinolyl)-4-methyl-phenyl]methanamine;dihydrochloride], the EC90 in assay [1] (setting [3]) lay in the range of 5 to 100 µM. The EC50 with E. coli BW25113 was under 5 µM.

Consider `Cc1c(CN)cccc1-c1ccc2nc(N3CCNCC3)c(Cl)cc2c1` [Example 117, [3-(3-chloro-2-piperazin-1-yl-6-quinolyl)-2-methyl-phenyl]methanamine;dihydrochloride], for which the EC90 in assay [1] (setting [3]) fell in the range of 5 to 100 µM. The EC50 in the assay on E. coli BW25113 was under 5 µM.

Consider `CN(C)Cc1cccc(-c2ccc3nc(N4CCNCC4)c(Cl)cc3c2)c1` [Example 110, 1-[3-(3-chloro-2-piperazin-1-yl-6-quinolyl)phenyl]-N,N-dimethyl-methanamine;dihydrochloride], for which, in assay [1] (setting [3]), the EC90 fell in the range of 5 to 100 µM. For the same compound, in the assay with E. coli BW25113, the EC50 was under 5 µM.

As for `NCc1cc(-c2ccc3nc(N4CCNCC4)c(Cl)cc3c2)ccc1Cl` [Example 128, [2-chloro-5-(3-chloro-2-piperazin-1-yl-6-quinolyl)phenyl]methanamine;dihydrochloride], in assay [1] (setting [3]), the EC90 lay in the range of 5 to 100 µM. Besides, the EC50 with E. coli BW25113 was under 5 µM.
